Data taken from PubChem BioAssay AID1259407 (Chemical Carcinogenesis Research Information System (CCRIS), 2018).
Calls of active or inactive are those of the source. The rule behind the calls is not given here.

Tested on: CCRIS mutagenicity, Ames/micronucleus/aberration tests
Experiment: CCRIS mutagenicity studies
[1] = Test System: AMES SALMONELLA TYPHIMURIUM, Strain/Indicator: TA98, Metabolic Activation: NONE, Method: PREINCUBATION
[2] = Test System: AMES SALMONELLA TYPHIMURIUM, Strain/Indicator: TA100, Metabolic Activation: NONE, Method: PREINCUBATION

For `O=[N+]([O-])c1ccc(CNc2ncnc3c2ncn3[C@@H]2O[C@H](CO)[C@@H](O)[C@H]2O)cc1`, the mutagenic call (Test System: AMES SALMONELLA TYPHIMURIUM, Strain/Indicator: TA98(1,8-DNP), Metabolic Activation: NONE, Method: PREINCUBATION) was “inactive; negative”, the mutagenic call (Test System: AMES SALMONELLA TYPHIMURIUM, Strain/Indicator: TA98(1,8-DNP), Metabolic Activation: RAT, LIVER, S-9, PCB, Method: PREINCUBATION) was “inactive; negative” and the mutagenic call (Test System: AMES SALMONELLA TYPHIMURIUM, Strain/Indicator: TA98(NR), Metabolic Activation: NONE, Method: PREINCUBATION) was “inactive; negative”. The mutagenic call (Test System: AMES SALMONELLA TYPHIMURIUM, Strain/Indicator: TA98(NR), Metabolic Activation: RAT, LIVER, S-9, PCB, Method: PREINCUBATION) was “inactive; negative”, the mutagenic call [1] was “inactive; negative” and the mutagenic call (Test System: AMES SALMONELLA TYPHIMURIUM, Strain/Indicator: TA98, Metabolic Activation: RAT, LIVER, S-9, PCB, Method: PREINCUBATION) was “inactive; negative”. The mutagenic call (Test System: AMES SALMONELLA TYPHIMURIUM, Strain/Indicator: TA100(1,8-DNP), Metabolic Activation: NONE, Method: PREINCUBATION) was “inactive; negative”, the mutagenic call (Test System: AMES SALMONELLA TYPHIMURIUM, Strain/Indicator: TA100(1,8-DNP), Metabolic Activation: RAT, LIVER, S-9, PCB, Method: PREINCUBATION) was “inactive; negative” and the mutagenic call (Test System: AMES SALMONELLA TYPHIMURIUM, Strain/Indicator: TA100(NR), Metabolic Activation: NONE, Method: PREINCUBATION) was “inactive; negative”. For the same compound, the mutagenic call (Test System: AMES SALMONELLA TYPHIMURIUM, Strain/Indicator: TA100(NR), Metabolic Activation: RAT, LIVER, S-9, PCB, Method: PREINCUBATION) was “inactive; negative”, the mutagenic call [2] was “inactive; negative” and the mutagenic call (Test System: AMES SALMONELLA TYPHIMURIUM, Strain/Indicator: TA100, Metabolic Activation: RAT, LIVER, S-9, PCB, Method: PREINCUBATION) was “inactive; negative”. The mutagenic call (Test System: AMES SALMONELLA TYPHIMURIUM, Strain/Indicator: YG1020, Metabolic Activation: NONE, Method: PREINCUBATION) was “active; positive”, the mutagenic call (Test System: AMES SALMONELLA TYPHIMURIUM, Strain/Indicator: YG1020, Metabolic Activation: RAT, LIVER, S-9, PCB, Method: PREINCUBATION) was “inactive; negative” and the mutagenic call (Test System: AMES SALMONELLA TYPHIMURIUM, Strain/Indicator: YG1021, Metabolic Activation: NONE, Method: PREINCUBATION) was “active; positive”. For the same compound, the mutagenic call (Test System: AMES SALMONELLA TYPHIMURIUM, Strain/Indicator: YG1021, Metabolic Activation: RAT, LIVER, S-9, PCB, Method: PREINCUBATION) was “active; positive”, the mutagenic call (Test System: AMES SALMONELLA TYPHIMURIUM, Strain/Indicator: YG1024, Metabolic Activation: NONE, Method: PREINCUBATION) was “active; positive” and the mutagenic call (Test System: AMES SALMONELLA TYPHIMURIUM, Strain/Indicator: YG1024, Metabolic Activation: RAT, LIVER, S-9, PCB, Method: PREINCUBATION) was “inactive; negative”. For the same compound, the mutagenic call (Test System: AMES SALMONELLA TYPHIMURIUM, Strain/Indicator: YG1025, Metabolic Activation: NONE, Method: PREINCUBATION) was “inactive; negative”, the mutagenic call (Test System: AMES SALMONELLA TYPHIMURIUM, Strain/Indicator: YG1025, Metabolic Activation: RAT, LIVER, S-9, PCB, Method: PREINCUBATION) was “inactive; negative” and the mutagenic call (Test System: AMES SALMONELLA TYPHIMURIUM, Strain/Indicator: YG1026, Metabolic Activation: NONE, Method: PREINCUBATION) was “inactive; negative”. For the same compound, the mutagenic call (Test System: AMES SALMONELLA TYPHIMURIUM, Strain/Indicator: YG1026, Metabolic Activation: RAT, LIVER, S-9, PCB, Method: PREINCUBATION) was “inactive; negative”, the mutagenic call (Test System: AMES SALMONELLA TYPHIMURIUM, Strain/Indicator: YG1029, Metabolic Activation: NONE, Method: PREINCUBATION) was “inactive; negative” and the mutagenic call (Test System: AMES SALMONELLA TYPHIMURIUM, Strain/Indicator: YG1029, Metabolic Activation: RAT, LIVER, S-9, PCB, Method: PREINCUBATION) was “inactive; negative”.

With `CCN(CC)c1ccc(N=Nc2c(Cl)cc([N+](=O)[O-])cc2Cl)cc1` the mutagenic call (Test System: AMES SALMONELLA TYPHIMURIUM, Strain/Indicator: TA98, Metabolic Activation: NONE, Method: STANDARD PLATE) was “active; positive”, the mutagenic call (Test System: AMES SALMONELLA TYPHIMURIUM, Strain/Indicator: TA98, Metabolic Activation: RAT, LIVER, S-9, AROCLOR 1254, Method: STANDARD PLATE) was “active; positive” and the mutagenic call (Test System: AMES SALMONELLA TYPHIMURIUM, Strain/Indicator: TA100, Metabolic Activation: NONE, Method: STANDARD PLATE) was “inactive; negative”. For the same compound, the mutagenic call (Test System: AMES SALMONELLA TYPHIMURIUM, Strain/Indicator: TA100, Metabolic Activation: RAT, LIVER, S-9, AROCLOR 1254, Method: STANDARD PLATE) was “inactive; negative”, the mutagenic call (Test System: AMES SALMONELLA TYPHIMURIUM, Strain/Indicator: TA1535, Metabolic Activation: NONE, Method: STANDARD PLATE) was “inactive; negative” and the mutagenic call (Test System: AMES SALMONELLA TYPHIMURIUM, Strain/Indicator: TA1535, Metabolic Activation: RAT, LIVER, S-9, AROCLOR 1254, Method: STANDARD PLATE) was “inactive; negative”. For the same compound, the mutagenic call (Test System: AMES SALMONELLA TYPHIMURIUM, Strain/Indicator: TA1537, Metabolic Activation: NONE, Method: STANDARD PLATE) was “inactive; negative”, the mutagenic call (Test System: AMES SALMONELLA TYPHIMURIUM, Strain/Indicator: TA1537, Metabolic Activation: RAT, LIVER, S-9, AROCLOR 1254, Method: STANDARD PLATE) was “inactive; negative” and the mutagenic call (Test System: CHINESE HAMSTER OVARY, Strain/Indicator: CHO (HGPRT)/6-THIOGUANINE, Metabolic Activation: NONE) was “inactive; negative”. The mutagenic call (Test System: CHINESE HAMSTER OVARY, Strain/Indicator: CHO (HGPRT)/6-THIOGUANINE, Metabolic Activation: RAT, LIVER, S-9, AROCLOR 1254) was “inactive; negative” and the mutagenic call (Test System: UDS RAT HEPATOCYTES, Strain/Indicator: THY INCORP, Metabolic Activation: NONE, Method: AUTORADIOGRAPHY) was “inactive; negative”.

For `CC(C)CCC[C@@H](C)[C@H]1CC[C@H]2[C@@H]3CC=C4C[C@@H](O)CC[C@]4(C)[C@H]3CC[C@]12C`, the mutagenic call (Test System: CHINESE HAMSTER V-79, Strain/Indicator: V-79/OUABAIN, Metabolic Activation: NONE) was “inactive; negative”.

`Nc1cccc2c1-c1cccc3cccc-2c13` was tested, and the mutagenic call (Test System: AMES SALMONELLA TYPHIMURIUM, Strain/Indicator: TA98, Metabolic Activation: RAT, LIVER, S-9, AROCLOR 1254 (2 OR 4%), Method: STANDARD PLATE) was “active; positive”, the mutagenic call (Test System: AMES SALMONELLA TYPHIMURIUM, Strain/Indicator: TA100, Metabolic Activation: RAT, LIVER, S-9, AROCLOR 1254 (2%), Method: STANDARD PLATE) was “active; positive” and the mutagenic call (Test System: AMES SALMONELLA TYPHIMURIUM, Strain/Indicator: TA1535, Metabolic Activation: RAT, LIVER, S-9, AROCLOR 1254 (2%), Method: STANDARD PLATE) was “inactive; negative”. The mutagenic call (Test System: AMES SALMONELLA TYPHIMURIUM, Strain/Indicator: TA1537, Metabolic Activation: RAT, LIVER, S-9, AROCLOR 1254 (2%), Method: STANDARD PLATE) was “active; positive”.

`Cc1c(C)c2c(c(C)c1OC(=O)CCC(=O)O)CC[C@@](C)(CCC[C@H](C)CCC[C@H](C)CCCC(C)C)O2` was tested, and the mutagenic call (Test System: AMES SALMONELLA TYPHIMURIUM, Strain/Indicator: TA97, Metabolic Activation: HAMSTER, LIVER, S-9, AROCLOR 1254 (10 OR 30%), Method: PREINCUBATION) was “inactive; negative”, the mutagenic call (Test System: AMES SALMONELLA TYPHIMURIUM, Strain/Indicator: TA97, Metabolic Activation: NONE, Method: PREINCUBATION) was “inactive; negative” and the mutagenic call (Test System: AMES SALMONELLA TYPHIMURIUM, Strain/Indicator: TA97, Metabolic Activation: RAT, LIVER, S-9, AROCLOR 1254 (10 OR 30%), Method: PREINCUBATION) was “inactive; negative”. For the same compound, the mutagenic call (Test System: AMES SALMONELLA TYPHIMURIUM, Strain/Indicator: TA98, Metabolic Activation: HAMSTER, LIVER, S-9, AROCLOR 1254 (10 OR 30%), Method: PREINCUBATION) was “inactive; negative”, the mutagenic call [1] was “inactive; negative” and the mutagenic call (Test System: AMES SALMONELLA TYPHIMURIUM, Strain/Indicator: TA98, Metabolic Activation: RAT, LIVER, S-9, AROCLOR 1254 (10 OR 30%), Method: PREINCUBATION) was “inactive; negative”. The mutagenic call (Test System: AMES SALMONELLA TYPHIMURIUM, Strain/Indicator: TA100, Metabolic Activation: HAMSTER, LIVER, S-9, AROCLOR 1254 (10 OR 30%), Method: PREINCUBATION) was “inactive; negative”, the mutagenic call [2] was “inactive; negative” and the mutagenic call (Test System: AMES SALMONELLA TYPHIMURIUM, Strain/Indicator: TA100, Metabolic Activation: RAT, LIVER, S-9, AROCLOR 1254 (10 OR 30%), Method: PREINCUBATION) was “inactive; negative”. For the same compound, the mutagenic call (Test System: AMES SALMONELLA TYPHIMURIUM, Strain/Indicator: TA1535, Metabolic Activation: HAMSTER, LIVER, S-9, AROCLOR 1254 (10 OR 30%), Method: PREINCUBATION) was “inactive; negative”, the mutagenic call (Test System: AMES SALMONELLA TYPHIMURIUM, Strain/Indicator: TA1535, Metabolic Activation: NONE, Method: PREINCUBATION) was “inactive; negative” and the mutagenic call (Test System: AMES SALMONELLA TYPHIMURIUM, Strain/Indicator: TA1535, Metabolic Activation: RAT, LIVER, S-9, AROCLOR 1254 (10 OR 30%), Method: PREINCUBATION) was “inactive; negative”.

For `COC(=O)CN(N=O)C(N)=O`, the mutagenic call (Test System: E. COLI B, Strain/Indicator: H/R30R, Metabolic Activation: NONE) was “active; positive” and the mutagenic call (Test System: E. COLI B, Strain/Indicator: HS30R, Metabolic Activation: NONE) was “active; positive”.
